ChEMBL document CHEMBL5608245, “Inhibition of the EphA2-Sam/Ship2-Sam Association through Peptide Ligands: Studying the Combined Effect of Charge and Aromatic Character” (J Med Chem, 2024)
Calls of active or inactive are those of the source. The calls are words filed in the database; no cut-off is given here. Where a SMILES comes first, the peptide text is derived from it.

Assays:
[1] = target: Ephrin type-A receptor 2 (Homo sapiens) (UniProt P29317); test: Induction of EPHA2 receptor internalization in human PC-3 cells assessed as effect on EPHA2 protein level at 50 uM incubated for 4 hrs by Western blotting analysis; type: cell-based
Sequence of Ephrin type-A receptor 2 (Homo sapiens) (P29317 whole entry): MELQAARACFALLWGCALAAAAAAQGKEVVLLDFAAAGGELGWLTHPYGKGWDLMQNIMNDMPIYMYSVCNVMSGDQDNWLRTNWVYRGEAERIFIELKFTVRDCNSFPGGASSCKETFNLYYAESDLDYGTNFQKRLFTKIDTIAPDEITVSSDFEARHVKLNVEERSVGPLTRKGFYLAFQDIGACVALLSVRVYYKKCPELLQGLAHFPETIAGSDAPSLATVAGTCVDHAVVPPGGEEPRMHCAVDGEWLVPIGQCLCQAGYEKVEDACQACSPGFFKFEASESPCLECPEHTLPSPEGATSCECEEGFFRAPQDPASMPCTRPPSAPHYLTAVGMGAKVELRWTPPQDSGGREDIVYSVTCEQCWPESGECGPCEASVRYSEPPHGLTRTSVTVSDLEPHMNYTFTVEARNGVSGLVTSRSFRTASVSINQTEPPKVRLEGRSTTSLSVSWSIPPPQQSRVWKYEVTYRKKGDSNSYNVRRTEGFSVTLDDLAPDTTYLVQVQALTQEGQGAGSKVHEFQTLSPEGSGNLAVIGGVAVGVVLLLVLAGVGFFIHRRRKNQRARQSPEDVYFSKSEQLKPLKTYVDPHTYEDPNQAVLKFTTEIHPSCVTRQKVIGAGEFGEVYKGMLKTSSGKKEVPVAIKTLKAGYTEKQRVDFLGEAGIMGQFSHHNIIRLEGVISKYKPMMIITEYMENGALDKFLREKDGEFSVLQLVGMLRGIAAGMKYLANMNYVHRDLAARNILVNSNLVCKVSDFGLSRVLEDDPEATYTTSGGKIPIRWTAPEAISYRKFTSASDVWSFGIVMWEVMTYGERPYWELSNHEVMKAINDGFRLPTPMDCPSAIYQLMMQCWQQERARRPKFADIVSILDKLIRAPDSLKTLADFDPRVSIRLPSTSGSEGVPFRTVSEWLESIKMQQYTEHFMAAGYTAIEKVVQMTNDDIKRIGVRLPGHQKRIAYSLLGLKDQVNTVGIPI

[2] = target: Ephrin type-A receptor 2 (Homo sapiens) (UniProt P29317); test: Induction of EPHA2 receptor internalization in human PC-3 cells assessed as effect on EPHA2 protein level at 50 uM preincubated for 4 hrs followed by ephrinA1-Fc addition and measured after 2 hrs by Western blotting analysis; type: cell-based; conditions: time 6.0 hrs
PC-3 = test: Cytotoxicity against human PC-3 cells assessed as reduction in cell viability at 50 uM incubated for 4 hrs by crystal violet staining based assay; type: toxicity; conditions: pc-3, 4 h
NHDF = test: Cytotoxicity against human NHDF cells assessed as reduction in cell viability at 50 uM incubated for 4 hrs by crystal violet staining based assay; type: toxicity
Homo sapiens = species on record: Homo sapiens; conditions: dose 4.2 mM
Description: Inhibition of recombinant human 15N-labeled EPHA2 Sam domain (904 to 968 residues)/recombinant human SHIP2 Sam domain (1194 to 1258 residues) protein-protein interaction extracted from Escherichia coli BL21 (DE3) cells at 4.2 mM by NMR displacement assay

[3] = target: Tyrosine-protein kinase Lyn (Homo sapiens) (UniProt P07948); test: Binding affinity to His tagged human LYN SH2 domain (129 to 226 residues) extracted from Escherichia coli BL21 (DE3) cells at 289 uM by NMR spectroscopy
Sequence of Tyrosine-protein kinase Lyn (Homo sapiens) (P07948 2-512 limits assumed): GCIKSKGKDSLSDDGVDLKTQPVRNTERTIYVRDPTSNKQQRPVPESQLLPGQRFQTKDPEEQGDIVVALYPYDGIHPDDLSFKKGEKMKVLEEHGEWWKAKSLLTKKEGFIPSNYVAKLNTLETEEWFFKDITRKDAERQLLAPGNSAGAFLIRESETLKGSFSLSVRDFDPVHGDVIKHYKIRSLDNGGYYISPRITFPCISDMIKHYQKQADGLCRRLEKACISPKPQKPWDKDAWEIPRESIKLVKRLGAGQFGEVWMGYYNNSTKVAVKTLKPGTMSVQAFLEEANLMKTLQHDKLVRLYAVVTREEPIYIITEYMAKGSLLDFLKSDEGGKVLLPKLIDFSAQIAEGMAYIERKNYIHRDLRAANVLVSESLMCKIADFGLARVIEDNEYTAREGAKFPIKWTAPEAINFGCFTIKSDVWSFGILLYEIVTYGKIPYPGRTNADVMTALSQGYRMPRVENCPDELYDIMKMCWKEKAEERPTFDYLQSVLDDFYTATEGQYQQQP

[4] = target: Arf-GAP with Rho-GAP domain, ANK repeat and PH domain-containing protein 3 (Homo sapiens) (UniProt Q8WWN8); test: Binding affinity to N-terminal His6 tagged human ARAP3 Sam domain (1 to 80 residues) extracted from Escherichia coli BL21 (DE3) cells at 300 uM by NMR spectroscopy
Sequence of Arf-GAP with Rho-GAP domain, ANK repeat and PH domain-containing protein 3 (Homo sapiens) (Q8WWN8 whole entry, the tested form may be a part): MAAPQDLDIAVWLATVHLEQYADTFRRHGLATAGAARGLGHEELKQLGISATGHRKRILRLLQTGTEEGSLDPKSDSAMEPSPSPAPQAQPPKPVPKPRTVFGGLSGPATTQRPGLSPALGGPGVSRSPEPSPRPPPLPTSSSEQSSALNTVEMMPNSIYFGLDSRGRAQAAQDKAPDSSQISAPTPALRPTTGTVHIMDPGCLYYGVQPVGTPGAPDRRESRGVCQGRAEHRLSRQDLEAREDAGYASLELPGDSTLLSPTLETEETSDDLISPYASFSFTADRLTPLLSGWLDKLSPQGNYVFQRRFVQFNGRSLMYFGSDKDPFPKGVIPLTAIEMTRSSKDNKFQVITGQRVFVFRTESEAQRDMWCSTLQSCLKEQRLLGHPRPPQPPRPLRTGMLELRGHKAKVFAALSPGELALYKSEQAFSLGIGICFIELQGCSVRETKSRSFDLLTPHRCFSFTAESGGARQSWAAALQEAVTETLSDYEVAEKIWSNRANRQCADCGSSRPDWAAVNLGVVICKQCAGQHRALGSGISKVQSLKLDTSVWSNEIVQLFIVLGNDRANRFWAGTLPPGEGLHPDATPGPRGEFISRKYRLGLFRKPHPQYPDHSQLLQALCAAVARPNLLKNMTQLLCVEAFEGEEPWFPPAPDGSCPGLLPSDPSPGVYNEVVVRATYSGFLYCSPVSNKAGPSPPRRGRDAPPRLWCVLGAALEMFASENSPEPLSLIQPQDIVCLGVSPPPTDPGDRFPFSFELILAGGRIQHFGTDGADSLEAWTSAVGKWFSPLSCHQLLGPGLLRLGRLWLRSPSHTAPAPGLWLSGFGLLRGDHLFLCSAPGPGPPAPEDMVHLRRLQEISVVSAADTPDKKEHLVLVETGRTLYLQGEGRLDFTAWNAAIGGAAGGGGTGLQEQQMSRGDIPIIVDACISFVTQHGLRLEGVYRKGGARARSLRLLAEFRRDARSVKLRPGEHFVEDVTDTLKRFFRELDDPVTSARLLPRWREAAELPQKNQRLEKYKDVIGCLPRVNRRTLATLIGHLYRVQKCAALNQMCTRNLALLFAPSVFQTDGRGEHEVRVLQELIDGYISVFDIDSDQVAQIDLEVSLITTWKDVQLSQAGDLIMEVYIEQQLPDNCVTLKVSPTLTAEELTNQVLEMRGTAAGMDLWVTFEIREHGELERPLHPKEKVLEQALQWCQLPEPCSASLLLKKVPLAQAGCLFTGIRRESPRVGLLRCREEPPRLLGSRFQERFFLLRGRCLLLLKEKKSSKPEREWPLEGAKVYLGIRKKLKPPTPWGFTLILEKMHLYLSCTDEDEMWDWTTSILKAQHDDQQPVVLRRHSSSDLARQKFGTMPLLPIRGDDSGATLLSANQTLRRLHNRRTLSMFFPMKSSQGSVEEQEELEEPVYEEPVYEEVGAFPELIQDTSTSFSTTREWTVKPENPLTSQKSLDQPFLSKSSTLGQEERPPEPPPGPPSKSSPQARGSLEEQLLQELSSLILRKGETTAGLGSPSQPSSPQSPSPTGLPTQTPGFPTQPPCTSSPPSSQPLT

[5] = Self-assembly property of compound in 80% TFE assessed as helical content by circular dichroism spectra analysis; type: physicochemical

Activity [1] | Activity [2] | SMILES | also measured
inactive | inactive | CC[C@H](C)[C@H](NC(=O)[C@H](CCCNC(=N)N)NC(=O)[C@H](CCCCN)NC(=O)CNC(=O)CNC(=O)[C@H](CCC(N)=O)NC(=O)[C@@H]1CCCN1C(=O)[C@@H]1CCCN1C(=O)[C@@H](CCCNC(=N)N)NC(=O)[C@@H](CCCNC(=N)N)NC(=O)[C@@H](CCCNC(=N)N)NC(=O)[C@@H](CCC(N)=O)NC(=O)[C@@H](CCCNC(=N)N)NC(=O)[C@@H](CCCNC(=N)N)NC(=O)[C@@H](CCCCN)NC(=O)[C@@H](CCCCN)NC(=O)[C@@H](CCCNC(=N)N)NC(=O)CNC(=O)[C@H](C)NC(C)=O)C(=O)N[C@@H](C)C(=O)N[C@@H](Cc1ccc(O)cc1)C(=O)N[C@@H](CCCCN)C(=O)N[C@@H](CCCNC(=N)N)C(=O)N[C@H](C(=O)N[C@@H](C)C(=O)N[C@@H](Cc1ccc(O)cc1)C(=O)N[C@@H](CCCCN)C(=O)N[C@@H](CCCNC(=N)N)C(=O)N[C@H](C(=O)N[C@@H](C)C(=O)N[C@@H](Cc1ccc(O)cc1)C(N)=O)[C@@H](C)CC)[C@@H](C)CC | –
– | – | CC(=O)N[C@@H](C)C(=O)NCC(=O)N[C@@H](CCCNC(=N)N)C(=O)N[C@@H](CCCCN)C(=O)N[C@@H](CCCCN)C(=O)N[C@@H](CCCNC(=N)N)C(=O)N[C@@H](CCCNC(=N)N)C(=O)N[C@@H](CCC(N)=O)C(=O)N[C@@H](CCCNC(=N)N)C(=O)N[C@@H](CCCNC(=N)N)C(=O)N[C@@H](CCCNC(=N)N)C(=O)N1CCC[C@H]1C(=O)N1CCC[C@H]1C(=O)N[C@@H](CCC(N)=O)C(=O)NCC(=O)NCC(=O)N[C@@H](CCCCN)C(=O)N[C@@H](CCCNC(=N)N)C(=O)N[C@@H](CCCCN)C(=O)N[C@@H](C)C(=O)N[C@@H](Cc1ccc(O)cc1)C(=O)N[C@@H](CCCCN)C(=O)N[C@@H](CCCNC(=N)N)C(=O)N[C@@H](CCCCN)C(=O)N[C@@H](C)C(=O)N[C@@H](Cc1ccc(O)cc1)C(=O)N[C@@H](CCCCN)C(=O)N[C@@H](CCCNC(=N)N)C(=O)N[C@@H](CCCCN)C(=O)N[C@@H](C)C(=O)N[C@@H](CO)C(N)=O | Activity (PC-3): Toxic; Activity (NHDF): Toxic
inactive | inactive | CC(=O)N[C@@H](C)C(=O)NCC(=O)N[C@H](CCCNC(=N)N)C(=O)N[C@H](CCCCN)C(=O)N[C@H](CCCCN)C(=O)N[C@H](CCCNC(=N)N)C(=O)N[C@H](CCCNC(=N)N)C(=O)N[C@H](CCC(N)=O)C(=O)N[C@H](CCCNC(=N)N)C(=O)N[C@H](CCCNC(=N)N)C(=O)N[C@H](CCCNC(=N)N)C(=O)N1CCC[C@H]1C(=O)N1CCC[C@H]1C(=O)N[C@@H](CCC(N)=O)C(=O)NCC(=O)NCC(=O)N[C@@H](CCCCN)C(=O)N[C@@H](CCCNC(=N)N)C(=O)N[C@@H](CCCCN)C(=O)N[C@@H](C)C(=O)N[C@@H](Cc1ccc(O)cc1)C(=O)N[C@@H](CCCCN)C(=O)N[C@@H](CCCNC(=N)N)C(=O)N[C@@H](CCCCN)C(=O)N[C@@H](C)C(=O)N[C@@H](Cc1ccc(O)cc1)C(=O)N[C@@H](CCCCN)C(=O)N[C@@H](CCCNC(=N)N)C(=O)N[C@@H](CCCCN)C(=O)N[C@@H](C)C(=O)N[C@@H](CO)C(N)=O | –
inactive | inactive | CSCC[C@H](NC(=O)[C@H](Cc1ccccc1)NC(=O)[C@H](CCCCN)NC(=O)[C@H](CC(=O)O)NC(=O)[C@H](CCC(=O)O)NC(=O)[C@H](CCCNC(=N)N)NC(=O)[C@H](CCCNC(=N)N)NC(=O)[C@@H](NC(=O)[C@@H]1CCCN1C(=O)CNC(=O)CNC(=O)CNC(=O)[C@H](CCC(N)=O)NC(=O)[C@@H]1CCCN1C(=O)[C@H]1CCCN1C(=O)[C@H](CCCNC(=N)N)NC(=O)[C@H](CCCNC(=N)N)NC(=O)[C@H](CCCNC(=N)N)NC(=O)[C@H](CCC(N)=O)NC(=O)[C@H](CCCNC(=N)N)NC(=O)[C@H](CCCNC(=N)N)NC(=O)[C@H](CCCCN)NC(=O)[C@H](CCCCN)NC(=O)[C@H](CCCNC(=N)N)NC(=O)CNC(=O)[C@H](C)NC(C)=O)[C@@H](C)O)C(=O)N[C@@H](Cc1ccc(O)cc1)C(=O)N[C@@H](Cc1ccccc1)C(N)=O | –
– | – | CC[C@H](C)[C@H](NC(=O)[C@H](CCCNC(=N)N)NC(=O)[C@H](CCCCN)NC(=O)[C@H](Cc1ccc(O)cc1)NC(=O)[C@H](C)NC(=O)[C@H](CCCCN)NC(=O)[C@H](CCCNC(=N)N)NC(=O)[C@H](CCCCN)NC(=O)[C@H](Cc1ccc(O)cc1)NC(=O)[C@H](C)NC(=O)[C@H](CCCCN)NC(=O)[C@H](CCCNC(=N)N)NC(=O)[C@H](CCCCN)NC(C)=O)C(=O)N[C@@H](C)C(=O)N[C@@H](Cc1ccc(O)cc1)C(N)=O (Ac-KRKAYKRKAYKRIAY-NH2) | inhibition (Homo sapiens): inactive
– | – | CC(=O)N[C@@H](CCCCN)C(=O)N[C@@H](CCCNC(=N)N)C(=O)N[C@@H](CCCCN)C(=O)N[C@@H](C)C(=O)N[C@@H](Cc1c[nH]c2ccccc12)C(=O)N[C@@H](CCCCN)C(=O)N[C@@H](CCCNC(=N)N)C(=O)N[C@@H](CCCCN)C(=O)N[C@@H](C)C(=O)N[C@@H](Cc1ccc(O)cc1)C(=O)N[C@@H](CCCCN)C(=O)N[C@@H](CCCNC(=N)N)C(=O)N[C@@H](CCCCN)C(=O)N[C@@H](C)C(=O)N[C@@H](Cc1c[nH]c2ccccc12)C(N)=O (Ac-KRKAWKRKAYKRKAW-NH2) | Activity [3]: inactive
– | – | CC(=O)N[C@@H](CCCCN)C(=O)N[C@@H](CCCNC(=N)N)C(=O)N[C@@H](CCCCN)C(=O)N[C@@H](C)C(=O)N[C@@H](CO)C(=O)N[C@@H](CCCCN)C(=O)N[C@@H](CCCNC(=N)N)C(=O)N[C@@H](CCCCN)C(=O)N[C@@H](C)C(=O)N[C@@H](Cc1c[nH]c2ccccc12)C(=O)N[C@@H](CCCCN)C(=O)N[C@@H](CCCNC(=N)N)C(=O)N[C@@H](CCCCN)C(=O)N[C@@H](C)C(=O)N[C@@H](Cc1c[nH]c2ccccc12)C(N)=O (Ac-KRKASKRKAWKRKAW-NH2) | Activity [4]: inactive; Activity [5]: 21.1%
